{
  "source": "patent US7638508B2",
  "about": "“Glucocorticosteroid compound having anti-inflammatory activity” (Glaxo Group Limited, priority 2003, dated 2009)",
  "format_in_all_cases": "cell-based",
  "key": {"[1]": {"target": "T1, glucocorticoid receptor (Homo sapiens, UniProt P04150)", "T1 sequence (P04150 1-777)": "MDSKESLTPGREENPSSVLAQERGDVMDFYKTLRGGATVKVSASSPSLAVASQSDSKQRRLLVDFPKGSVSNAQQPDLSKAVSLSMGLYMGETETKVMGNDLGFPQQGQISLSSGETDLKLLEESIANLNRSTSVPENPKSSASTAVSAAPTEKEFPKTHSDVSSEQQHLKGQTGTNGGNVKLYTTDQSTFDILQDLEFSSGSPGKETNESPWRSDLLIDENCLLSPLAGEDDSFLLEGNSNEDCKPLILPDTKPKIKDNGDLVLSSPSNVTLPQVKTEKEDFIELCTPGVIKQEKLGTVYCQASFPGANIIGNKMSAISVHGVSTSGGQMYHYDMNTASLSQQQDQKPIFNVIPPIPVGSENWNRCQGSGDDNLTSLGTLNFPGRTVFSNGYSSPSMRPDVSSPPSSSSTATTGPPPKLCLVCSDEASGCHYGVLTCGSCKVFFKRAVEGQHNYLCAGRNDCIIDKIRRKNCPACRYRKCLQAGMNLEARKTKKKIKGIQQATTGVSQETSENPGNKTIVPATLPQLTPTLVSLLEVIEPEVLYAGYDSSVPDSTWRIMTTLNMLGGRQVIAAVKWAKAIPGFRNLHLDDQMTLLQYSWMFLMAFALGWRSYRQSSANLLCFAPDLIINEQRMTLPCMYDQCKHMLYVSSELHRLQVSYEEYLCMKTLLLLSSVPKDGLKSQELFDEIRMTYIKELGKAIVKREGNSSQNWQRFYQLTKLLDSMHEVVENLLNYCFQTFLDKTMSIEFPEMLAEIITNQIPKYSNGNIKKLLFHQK", "test": "MMTV-LTR renilla luciferase reporter assay in A549 cells (direct transactivation of gene expression)", "conditions": "6 hour at 37° C., read-out: maximal response relative to Dexamethasone (100%)", "experimental": "(§1) Pharmacological activity may be assessed in functional in vitro assays of glucocorticoid agonist activity.\nThe functional assay based on that described by R. J. H. Austin et al., Eur Resp J. (2002), 20, 1386-1392 measures the ability of compounds to directly transactivate gene expression. A549 cells stably transfected with a reporter gene containing the glucocorticoid responsive region of the mouse mammary tumour virus long terminal repeat (MMTV-LTR) coupled to renilla luciferase were treated with test compounds at appropriate doses for 6 hour at 37° C. The amount of luciferase activity present within the cells is then determined by measuring the light emitted following incubation with a suitable substrate."}, "[2]": {"target": "T2, Progesterone Receptor (Homo sapiens, UniProt P06401)", "T2 construct": "The human breast cancer cell line T47D has been reported to upregulate an endogenous alkaline phosphatase in response to progestins; endogenous in cells; host or cells: T47D cells", "T2 sequence (P06401 1-933)": "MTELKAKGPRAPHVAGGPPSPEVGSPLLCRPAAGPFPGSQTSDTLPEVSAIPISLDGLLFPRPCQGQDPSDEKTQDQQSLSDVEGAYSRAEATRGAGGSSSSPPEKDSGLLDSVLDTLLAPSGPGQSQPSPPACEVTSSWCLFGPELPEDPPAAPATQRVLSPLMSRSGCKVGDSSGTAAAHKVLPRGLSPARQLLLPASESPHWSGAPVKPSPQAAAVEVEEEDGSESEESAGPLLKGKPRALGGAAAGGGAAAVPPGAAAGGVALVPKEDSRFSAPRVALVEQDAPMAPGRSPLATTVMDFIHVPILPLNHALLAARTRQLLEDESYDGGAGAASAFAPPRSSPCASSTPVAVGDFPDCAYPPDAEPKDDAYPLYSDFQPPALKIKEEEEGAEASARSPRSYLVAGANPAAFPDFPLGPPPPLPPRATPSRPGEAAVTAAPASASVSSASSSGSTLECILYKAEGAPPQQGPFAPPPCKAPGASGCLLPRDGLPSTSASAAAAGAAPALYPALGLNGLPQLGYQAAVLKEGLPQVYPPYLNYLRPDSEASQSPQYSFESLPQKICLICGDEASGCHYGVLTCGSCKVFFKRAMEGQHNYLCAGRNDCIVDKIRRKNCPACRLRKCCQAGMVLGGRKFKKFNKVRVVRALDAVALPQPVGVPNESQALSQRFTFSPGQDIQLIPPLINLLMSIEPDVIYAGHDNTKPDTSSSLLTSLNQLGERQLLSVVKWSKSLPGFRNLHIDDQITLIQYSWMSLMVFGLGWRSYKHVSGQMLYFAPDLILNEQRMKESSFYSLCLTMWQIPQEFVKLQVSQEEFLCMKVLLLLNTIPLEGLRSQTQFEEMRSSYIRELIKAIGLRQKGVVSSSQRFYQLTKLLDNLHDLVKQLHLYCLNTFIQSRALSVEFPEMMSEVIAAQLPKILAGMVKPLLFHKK", "test": "Assay for Progesterone Receptor Activity: alkaline phosphatase upregulation in T47D cells", "conditions": "24 hours at 37° C.", "experimental": "Assay for Progesterone Receptor Activity\nThe human breast cancer cell line T47D has been reported to upregulate an endogenous alkaline phosphatase in response to progestins (Di Lorenzo et al., Cancer Research (1991) 51, 4470-4475. T47D cells were seeded into 96 well plates at a density of 1×10^5 cells per well and grown overnight at 37° C. Steroids were dissolved in DMSO, added to the cells (final DMSO concentration 0.7%), and incubated for 24 hours at 37° C. The cells were then washed with PBS and lysed with RIPA buffer (1% IGEPAL, 0.5% Na deoxycholate, 0.1% SDS in phosphate buffered saline). Alkaline phosphatase activity was measured spectrophotometrically (405 nm) using p-nitrophenylphosphate (1.5 mg/ml) as a substrate dissolved in 1 M diethanolamine, 0.28M NaCl, 0.5 mM MgCl2. Dose response curves were constructed from which EC50 values were estimated."}, "[3]": {"target": "T1, glucocorticoid receptor", "test": "NF-κB/ELAM promoter sPAP reporter assay in A549 cells, TNF stimulated (transrepressive activity of a glucocorticoid agonist)", "design": "A549 cells stably transfected with a reporter gene containing the NF-κB responsive elements; endogenous in cells; host or cells: A549 cells", "conditions": "compound 1 hour at 37° C., then TNF 10 ng/ml for 16 hours, read-out: EC50 (transrepression, NF-κB sPAP reporter)", "experimental": "as §1\nThe functional assay based on that described by K. P. Ray et al., Biochem J. (1997), 328, 707-715 provides a measure of transrepressive activity of a glucocorticoid agonist. A549 cells stably transfected with a reporter gene containing the NF-κB responsive elements from the ELAM gene promoter coupled to sPAP (secreted alkaline phosphatase) are treated with test compounds at appropriate doses for 1 hour at 37° C. The cells are then stimulated with tumour necrosis factor (TNF, 10 ng/ml) for 16 hours, at which time the amount of alkaline phosphatase produced is measured by a standard colourimetric assay. Dose response curves are constructed from which EC50 values may be estimated."}},
  "data": [
    {"molecule": "C[C@@H]1C[C@H]2[C@@H]3C[C@H](F)C4=CC(=O)C=C[C@]4(C)[C@@]3(F)[C@@H](O)C[C@]2(C)[C@@]1(OC(=O)c1ccc(C#N)cc1)C(=O)OCC#N", "note": "[Example 8, 17α-(4-Cyanobenzoyl)oxy-6α,9α-difluoro-11β-hydroxy-16α-methyl-3-oxo-androsta-1,4-diene-17β-carboxylic Acid Cyanomethyl Ester]", "values": [
      {"measurement": "Emax", "setting": "[1]", "value": "< 35", "unit": "%"},
      {"measurement": "EC50", "setting": "[2]", "value": "> 100", "unit": "nM"},
      {"measurement": "EC50", "setting": "[3]", "value": "≤ 0.1", "unit": "nM"}
    ]},
    {"molecule": "CSc1ccc(C(=O)O[C@]2(C(=O)OCC#N)[C@H](C)C[C@H]3[C@@H]4C[C@H](F)C5=CC(=O)C=C[C@]5(C)[C@@]4(F)[C@@H](O)C[C@@]32C)s1", "note": "[Example 15, 6α,9α-Difluoro-11β-hydroxy-16α-methyl-17α-(5-methylthio-thiophene-2-carbonyl)oxy-3-oxo-androsta-1,4-diene-17β-carboxylic Acid Cyanomethyl Ester]", "values": [
      {"measurement": "Emax", "setting": "[1]", "value": "< 35", "unit": "%"},
      {"measurement": "EC50", "setting": "[3]", "value": "≤ 0.1", "unit": "nM"}
    ]},
    {"molecule": "C[C@@H]1C[C@H]2[C@@H]3C[C@H](F)C4=CC(=O)CC[C@]4(C)[C@@]3(F)[C@@H](O)C[C@]2(C)[C@@]1(OC(=O)C1C(C)(C)C1(C)C)C(=O)OCC#N", "note": "[Example 18, 6α,9α-Difluoro-11β-hydroxy-16α-methyl-3-oxo-17α-(2,2,3,3-tetramethycyclopropylcarbonyl)oxy-androst-4-ene-17 b-carboxylic Acid Cyanomethyl Ester]", "values": [
      {"measurement": "Emax", "setting": "[1]", "value": "< 35", "unit": "%"},
      {"measurement": "EC50", "setting": "[2]", "value": "> 100", "unit": "nM"}
    ]},
    {"molecule": "C[C@@H]1C[C@H]2[C@@H]3C[C@H](F)C4=CC(=O)C=C[C@]4(C)[C@@]3(F)[C@@H](O)C[C@]2(C)[C@@]1(OC(=O)C1C(C)(C)C1(Cl)Cl)C(=O)OCC#N", "note": "(stereo partly drawn) [Example 20, 17α-(2,2-Dichloro-3,3-dimethylclopropylcarbonyl)oxy-6α,9α-difluoro-11β-hydroxy-16α-methyl-3-oxo-androsta-1,4-diene-17β-carboxylic Acid Cyanomethyl Ester]", "values": [
      {"measurement": "Emax", "setting": "[1]", "value": "< 35", "unit": "%"},
      {"measurement": "EC50", "setting": "[2]", "value": "> 100", "unit": "nM"},
      {"measurement": "EC50", "setting": "[3]", "value": "≤ 0.1", "unit": "nM"}
    ]},
    {"molecule": "C[C@@H]1C[C@H]2[C@@H]3C[C@H](F)C4=CC(=O)C=C[C@]4(C)[C@@]3(F)[C@@H](O)C[C@]2(C)[C@@]1(OC(=O)c1ccc(S(C)(=O)=O)s1)C(=O)SCC#N", "note": "[Example 23, 6α,9α-Difluoro-11β-hydroxy-16α-methyl-17α-(5-methylsulphonyl-thiophene-2-carbonyl)oxy-3-oxo-androsta-1,4-diene-17β-carbothioic Acid S-cyanomethyl Ester]", "values": [
      {"measurement": "Emax", "setting": "[1]", "value": "< 35", "unit": "%"},
      {"measurement": "EC50", "setting": "[2]", "value": "> 100", "unit": "nM"}
    ]},
    {"molecule": "C[C@@H]1C[C@H]2[C@@H]3C[C@H](F)C4=CC(=O)C=C[C@]4(C)[C@@]3(F)[C@@H](O)C[C@]2(C)[C@@]1(OC(=O)c1ccc(C(F)(F)F)o1)C(=O)SCC#N", "note": "[Example 24, 6α,9α-Difluoro-11β-hydroxy-16α-methyl-3-oxo-17α-(5-trifluoromethyl-furan-2-carbonyl)oxy-androsta-1,4-diene-17β-carbothioic Acid S-cyanomethyl Ester]", "values": [
      {"measurement": "Emax", "setting": "[1]", "value": "< 35", "unit": "%"},
      {"measurement": "EC50", "setting": "[2]", "value": "> 100", "unit": "nM"}
    ]},
    {"molecule": "C[C@@H]1C[C@H]2[C@@H]3C[C@H](F)C4=CC(=O)C=C[C@]4(C)[C@@]3(F)[C@@H](O)C[C@]2(C)[C@@]1(OC(=O)c1cccc(SC(F)F)c1)C(=O)SCC#N", "note": "[Example 25, 6α,9α-Difluoro-17α-(3-(difluoromethylthio)benzoyl)oxy-11β-hydroxy-16α-methyl-3-oxo-androsta-1,4-diene-17β-carbothioic Acid S-cyanomethyl Ester]", "values": [
      {"measurement": "Emax", "setting": "[1]", "value": "< 35", "unit": "%"},
      {"measurement": "EC50", "setting": "[2]", "value": "> 100", "unit": "nM"}
    ]}
  ]
}
